Assay results taken from BigSolDB 2.1.

C1OCOCO1
solubility (mole fraction)
Conditions | in dimethoxymethane | in ethanol | in isopropanol | in methanol
288.15 K | 0.32 | 0.136 | 0.17 | 0.167
293.15 K | 0.371 | 0.175 | 0.213 | 0.21
297.15 K | 0.416 | – | – | –
298.15 K | – | 0.228 | 0.268 | 0.26
300.15 K | 0.452 | – | – | –
303.15 K | 0.489 | 0.29 | 0.331 | 0.318
306.15 K | 0.527 | – | – | –
308.15 K | – | 0.362 | 0.417 | 0.398
309.15 K | 0.567 | – | – | –
312.15 K | 0.608 | – | – | –
313.15 K | – | 0.457 | 0.511 | 0.517
318.15 K | – | 0.591 | 0.643 | 0.645
321.15 K | – | – | – | 0.8
323.15 K | – | 0.74 | 0.793 | –
328.15 K | – | 0.913 | 0.945 | –
